In article PMC8637149 (Heliyon, 2021):
Each block holds one compound with its values, some of them ahead of it.

Tests used:
ZmPEPC-C4 [1] = molecular target: T1, ZmPEPC-C4 (Zea mays, UniProt Q84KR7); assay: ANS fluorescence titration, emission […] nm; format: binding
T1 sequence (Q84KR7 1-970): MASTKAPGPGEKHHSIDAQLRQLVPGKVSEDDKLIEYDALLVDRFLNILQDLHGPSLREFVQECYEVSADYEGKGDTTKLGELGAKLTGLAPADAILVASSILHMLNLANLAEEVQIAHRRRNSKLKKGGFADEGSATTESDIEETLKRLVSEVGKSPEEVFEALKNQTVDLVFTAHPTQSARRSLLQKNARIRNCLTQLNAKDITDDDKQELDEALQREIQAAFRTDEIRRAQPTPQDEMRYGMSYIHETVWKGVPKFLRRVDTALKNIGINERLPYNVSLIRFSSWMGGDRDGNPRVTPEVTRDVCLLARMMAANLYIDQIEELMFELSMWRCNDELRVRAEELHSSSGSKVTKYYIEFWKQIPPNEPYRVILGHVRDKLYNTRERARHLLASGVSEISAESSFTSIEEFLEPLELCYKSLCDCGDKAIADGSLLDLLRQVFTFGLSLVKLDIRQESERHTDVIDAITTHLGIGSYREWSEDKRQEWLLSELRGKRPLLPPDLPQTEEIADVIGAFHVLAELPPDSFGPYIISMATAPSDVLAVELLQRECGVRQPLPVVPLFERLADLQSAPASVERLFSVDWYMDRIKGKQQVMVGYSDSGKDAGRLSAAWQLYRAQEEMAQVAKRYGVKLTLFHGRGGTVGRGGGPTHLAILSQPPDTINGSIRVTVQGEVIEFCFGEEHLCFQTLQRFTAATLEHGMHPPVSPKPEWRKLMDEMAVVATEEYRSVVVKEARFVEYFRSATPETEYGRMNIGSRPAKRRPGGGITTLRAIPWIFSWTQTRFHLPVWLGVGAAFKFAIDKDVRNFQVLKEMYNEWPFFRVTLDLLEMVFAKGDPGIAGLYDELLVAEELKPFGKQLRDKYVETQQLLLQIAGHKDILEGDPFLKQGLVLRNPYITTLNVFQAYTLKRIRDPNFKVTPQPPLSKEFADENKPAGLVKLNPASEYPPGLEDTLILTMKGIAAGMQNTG

ZmPEPC-C4 [2] = molecular target: T1, ZmPEPC-C4; assay: near-UV CD and limited trypsin proteolysis; format: binding; conditions: 15 mM G6P, pH 7.3; allosteric activator; no effect on ANS fluorescence
ZmPEPC-C4 [3] = molecular target: T1, ZmPEPC-C4; assay: quenching of ANS-enzyme fluorescence at […] nm, Hill-type fit; format: binding
ZmPEPC-C4 [4] = molecular target: T1, ZmPEPC-C4; assay: coupled malic dehydrogenase assay, NADH oxidation at […] nm; format: biochemical; conditions: read-out: % inhibition at 10 mM

- Kd (ZmPEPC-C4 [1]): 14.5 ± 1.5 µM
SMILES: O=S(=O)(O)c1cccc2cccc(Nc3ccccc3)c12 [ANS]

SMILES: O=P(O)(O)OC[C@H]1OC(O)[C@H](O)[C@@H](O)[C@@H]1O (stereo partly shown) [G6P]
- near-UV CD and limited trypsin proteolysis (ZmPEPC-C4 [2]): differences were also observed in the CD spectra of the E-PEP, E-G6P, and E-Gly complexes

- Kd (ZmPEPC-C4 [3]): 360 ± 70 µM
- inhibition at 10000 µM (ZmPEPC-C4 [4]): 84.5 ± 0.2%
SMILES: O=C(O)C[C@H](O)C(=O)O [malate]
